These results are taken from US8178668B2, “2-aminopyridine kinase inhibitors” (OSI Pharmaceuticals, LLC, priority 2008, dated 2012).

Usually IC50 stands for the concentration at which inhibition is half-maximal.

One assay has as its target RON (human) (Homo sapiens, UniProt Q04912). Description: RON kinase AlphaScreen assay (Km of ATP). Format: biochemical. The following applies: ATP at Km; at least duplicate experiments. On the procedure: (§1) Person skilled in the art will appreciate that a variety of assay formats may be used to determine the activity of the compounds of this invention. For example, AlphaScreen (Amplified Luminescent Proximity Homogeneous Assay) technology was used with the kinases described below. Assay ATP concentrations for individual kinases are included in the text.
RON (human)—Km of ATP: RON assay is performed in a 384 well assay containing 200 ng/μL biotinylated poly(Glu,Tyr), 0.334 mM vanadate, desired concentration of ATP optimized for the enzyme in assay buffer (50 mM HEPES (pH=7.4), 12.5 mM MgCl2 and 1% glycerol). Desired compound is added in a final concentration of 1% DMSO with control being vehicle of DMSO alone. RON is diluted to the optimized (on a lot-by-lot basis) concentration in an enzyme diluent buffer (50 mM HEPES pH=7.4, 12.5 mM MgCl2 and 1% glycerol, 0.03% Brij35, 0.3 mM EGTA, lmM DTT, and 0.003% BSA). Enzyme is added to initiate the reaction and incubated for 30 min at RT. In subdued light, appropriate amount of PT66 donor and acceptor beads (diluted 1:260 from manufacturer's provision in a 25 mM Tris HCl (pH=7.5), 200 mM NaCl, 100 mM EDTA, 0.3% BSA buffer) are added to the wells. The plates, incubated for 1 h, are read on an AlphaQuest plate reader.

The next assay addresses MET (human) (Homo sapiens, UniProt P08581). Description: MET kinase AlphaScreen assay (Km of ATP). Format: biochemical. The following applies: ATP at Km; at least duplicate experiments. The protocol: as §1
MET (human)—Km of ATP: MET assay is performed in a 384 well assay containing 200 ng/μL biotinylated poly(Glu,Tyr), 0.334 mM vanadate, desired concentration of ATP optimized for the enzyme in assay buffer (50 mM HEPES (pH=7.4), 5 mM MgCl2, 5 mM MnCl2, and 1% glycerol). Desired compound is added in a final concentration of 1% DMSO with control being vehicle of DMSO alone. MET is diluted to the optimized concentration (optimized on a lot-by-lot basis) in an enzyme diluent buffer (50 mM Tris pH=7.4, 1% glycerol, 0.03% Brij35, 0.24 mM EGTA, 1 mM DTT, and 0.003% BSA). Enzyme is added to initiate the reaction and incubated for 60 min at RT. In subdued light, appropriate amount of PT66 donor and acceptor beads (diluted 1:260 from manufacturer's provision in a 25 mM Tris HCl (pH=7.5), 400 mM NaCl, 100 mM EDTA, 0.3% BSA buffer) are added to the wells. The plates, incubated for 1 h, are read on an AlphaQuest plate reader
A general note: Alpha assays give light when donor and acceptor beads are brought close together.

Where a name gives a salt, the structure may show the parent alone.

Sequence of RON (human) (Q04912 25-1400): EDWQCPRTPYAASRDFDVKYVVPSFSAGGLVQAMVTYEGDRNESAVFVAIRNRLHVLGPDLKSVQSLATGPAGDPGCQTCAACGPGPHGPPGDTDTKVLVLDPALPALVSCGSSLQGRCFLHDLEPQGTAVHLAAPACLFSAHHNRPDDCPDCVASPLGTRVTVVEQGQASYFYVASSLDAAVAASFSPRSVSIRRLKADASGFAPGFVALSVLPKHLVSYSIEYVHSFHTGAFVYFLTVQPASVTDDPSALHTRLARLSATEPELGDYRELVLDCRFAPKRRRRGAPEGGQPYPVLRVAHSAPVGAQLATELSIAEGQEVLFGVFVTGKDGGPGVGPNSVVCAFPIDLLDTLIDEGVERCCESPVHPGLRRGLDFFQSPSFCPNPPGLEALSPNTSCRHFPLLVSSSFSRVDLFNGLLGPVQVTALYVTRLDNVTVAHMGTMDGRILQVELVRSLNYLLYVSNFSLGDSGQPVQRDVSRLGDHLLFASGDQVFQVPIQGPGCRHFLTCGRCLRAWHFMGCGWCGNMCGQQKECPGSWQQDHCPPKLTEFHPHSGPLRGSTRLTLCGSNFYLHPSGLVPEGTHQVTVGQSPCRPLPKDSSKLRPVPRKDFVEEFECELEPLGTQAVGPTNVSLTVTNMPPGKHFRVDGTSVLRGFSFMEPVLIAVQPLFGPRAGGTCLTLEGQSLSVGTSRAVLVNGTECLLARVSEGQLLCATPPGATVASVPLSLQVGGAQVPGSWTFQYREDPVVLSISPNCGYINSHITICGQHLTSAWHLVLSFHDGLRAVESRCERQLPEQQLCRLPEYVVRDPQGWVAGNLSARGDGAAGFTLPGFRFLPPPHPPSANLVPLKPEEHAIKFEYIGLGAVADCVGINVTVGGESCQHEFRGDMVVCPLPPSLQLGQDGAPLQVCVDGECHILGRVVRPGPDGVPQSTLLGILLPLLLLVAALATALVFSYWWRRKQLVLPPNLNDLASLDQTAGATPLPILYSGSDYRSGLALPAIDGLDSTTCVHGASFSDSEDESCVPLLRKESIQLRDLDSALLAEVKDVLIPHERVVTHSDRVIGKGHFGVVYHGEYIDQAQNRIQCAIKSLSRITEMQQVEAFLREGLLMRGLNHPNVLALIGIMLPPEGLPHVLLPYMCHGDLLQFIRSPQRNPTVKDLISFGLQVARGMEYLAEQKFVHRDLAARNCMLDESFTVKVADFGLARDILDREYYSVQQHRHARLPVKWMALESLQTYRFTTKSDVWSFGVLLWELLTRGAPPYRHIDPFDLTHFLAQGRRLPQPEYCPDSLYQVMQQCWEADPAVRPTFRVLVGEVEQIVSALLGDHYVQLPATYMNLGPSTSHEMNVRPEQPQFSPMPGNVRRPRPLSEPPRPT
Sequence of MET (human) (P08581 25-1390): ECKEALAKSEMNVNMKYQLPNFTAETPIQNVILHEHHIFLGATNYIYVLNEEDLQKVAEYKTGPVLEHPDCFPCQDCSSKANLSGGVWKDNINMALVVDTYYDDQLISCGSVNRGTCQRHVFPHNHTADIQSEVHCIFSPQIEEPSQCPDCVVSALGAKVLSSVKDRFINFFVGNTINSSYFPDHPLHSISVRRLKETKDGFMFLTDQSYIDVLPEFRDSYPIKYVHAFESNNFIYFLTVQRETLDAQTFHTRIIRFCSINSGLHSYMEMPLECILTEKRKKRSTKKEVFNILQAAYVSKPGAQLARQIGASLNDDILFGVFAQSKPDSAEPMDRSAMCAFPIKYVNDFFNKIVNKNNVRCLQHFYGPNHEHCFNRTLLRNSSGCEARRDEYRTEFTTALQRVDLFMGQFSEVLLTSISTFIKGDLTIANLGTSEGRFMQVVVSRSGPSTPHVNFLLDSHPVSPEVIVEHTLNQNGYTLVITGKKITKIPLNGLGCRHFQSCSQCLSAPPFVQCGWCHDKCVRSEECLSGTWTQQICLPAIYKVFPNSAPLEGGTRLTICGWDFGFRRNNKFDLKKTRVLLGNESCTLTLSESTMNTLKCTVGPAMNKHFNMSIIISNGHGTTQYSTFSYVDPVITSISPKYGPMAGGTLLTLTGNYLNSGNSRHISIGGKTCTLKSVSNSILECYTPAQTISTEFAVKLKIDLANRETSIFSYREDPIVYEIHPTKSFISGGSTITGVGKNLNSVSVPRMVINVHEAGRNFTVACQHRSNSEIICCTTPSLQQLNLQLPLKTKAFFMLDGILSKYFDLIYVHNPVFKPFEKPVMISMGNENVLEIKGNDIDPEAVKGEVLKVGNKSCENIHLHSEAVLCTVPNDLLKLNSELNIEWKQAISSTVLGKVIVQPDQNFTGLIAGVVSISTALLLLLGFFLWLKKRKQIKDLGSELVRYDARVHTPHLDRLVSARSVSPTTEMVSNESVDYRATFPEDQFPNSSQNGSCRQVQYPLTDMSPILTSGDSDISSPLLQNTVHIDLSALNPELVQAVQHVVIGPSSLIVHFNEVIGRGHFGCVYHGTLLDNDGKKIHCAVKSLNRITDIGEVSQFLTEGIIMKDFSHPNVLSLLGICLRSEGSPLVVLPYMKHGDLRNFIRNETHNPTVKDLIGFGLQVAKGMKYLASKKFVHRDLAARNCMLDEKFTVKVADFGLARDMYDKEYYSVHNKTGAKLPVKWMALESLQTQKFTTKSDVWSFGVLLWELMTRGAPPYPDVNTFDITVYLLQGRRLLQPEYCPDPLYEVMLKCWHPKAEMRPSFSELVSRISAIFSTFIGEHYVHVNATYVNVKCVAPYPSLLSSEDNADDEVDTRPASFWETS

As to `Nc1ncc(-c2cnn([C@@H]3CNC(CO)C3)c2)cc1-c1nc2ccccc2s1` (mixture of isomers) [Example 180, {(S)-4-[4-(6-Amino-5-benzothiazol-2-ylpyridin-3-yl)-pyrazol-1-yl]-pyrrolidin-2-yl}-methanol], the figures for the IC50 against RON (human) and at MET (human) were 100 to 1000 nM and ≤ 100 nM, respectively.

As for `Cc1nc(-c2cc(-c3cnn(C4CCNCC4)c3)cnc2N)cc2ccccc12` [Example 1, 3-(1-Methylisoquinolin-3-yl)-5-(1-piperidin-4-yl-1H-pyrazol-4-yl)-pyridin-2-ylamine trihydrochloride], the half-inhibitory concentration (IC50) against RON (human) and at MET (human) was 1000 to 20000 nM each time.

Consider `Cc1c(-c2cc(-c3cnn(C4CCNCC4)c3)cnc2N)ncc2ccccc12` [Example 2, 3-(4-Methylisoquinolin-3-yl)-5-(1-piperidin-4-yl-1H-pyrazol-4-yl)-pyridin-2-ylamine trihydrochloride], for which the results for the IC50 against RON (human) and at MET (human) were > 20000 nM and 1000 to 20000 nM, respectively.

For `Nc1ncc(-c2cnn(C3CCNCC3)c2)cc1-c1cc2cccc(Cl)c2cn1` [Example 3, 3-(8-Chloroisoquinolin-3-yl)-5-(1-piperidin-4-yl-1H-pyrazol-4-yl)-pyridin-2-ylamine trihydrochloride], the IC50 against RON (human) and against MET (human) was ≤ 100 nM throughout.

`Cc1ccc2cnc(-c3cc(-c4cnn(C5CCNCC5)c4)cnc3N)cc2c1` [Example 4, 3-(6-Methylisoquinolin-3-yl)-5-(1-piperidin-4-yl-1H-pyrazol-4-yl)-pyridin-2-ylamine trihydrochloride]: the IC50 was 1000 to 20000 nM at RON (human) and 100 to 1000 nM against MET (human).

`Cc1cccc2cc(-c3cc(-c4cnn(C5CCNCC5)c4)cnc3N)ncc12` [Example 5, 3-(8-Methylisoquinolin-3-yl)-5-(1-piperidin-4-yl-1H-pyrazol-4-yl)-pyridin-2-ylamine trihydrochloride]: the IC50 against RON (human) and against MET (human) was 100 to 1000 nM in each case.

Turning to `Cc1ccc(F)c2cnc(-c3cc(-c4cnn(C5CCNCC5)c4)cnc3N)cc12` [Example 6, 3-(8-Fluoro-5-methylisoquinolin-3-yl)-5-(1-piperidin-4-yl-1H-pyrazol-4-yl)-pyridin-2-ylamine trihydrochloride], the concentration for half-maximal inhibition (IC50) against RON (human) and against MET (human) was 100 to 1000 nM in each case.

`Nc1ncc(-c2cnn(C3CCNCC3)c2)cc1-c1cc2c(Br)ccc(F)c2cn1` [Example 7, 3-(5-Bromo-8-fluoroisoquinolin-3-yl)-5-(1-piperidin-4-yl-1H-pyrazol-4-yl)-pyridin-2-ylamine trihydrochloride]: the figures for the IC50 against RON (human) and against MET (human) were 100 to 1000 nM and ≤ 100 nM, respectively.

In the case of `Nc1ncc(-c2cnn(C3CCNCC3)c2)cc1-c1ncc2ccccc2c1F` [Example 8, 3-(4-Fluoroisoquinolin-3-yl)-5-(1-piperidin-4-yl-1H-pyrazol-4-yl)-pyridin-2-ylamine trihydrochloride], the IC50 at RON (human) and on MET (human) was 1000 to 20000 nM throughout.

With `Nc1ncc(-c2cnn(C3CCNCC3)c2)cc1-c1cc2c(Cl)ccc(Cl)c2cn1` [Example 9, 3-(5,8-Dichloroisoquinolin-3-yl)-5-(1-piperidin-4-yl-1H-pyrazol-4-yl)-pyridin-2-ylamine trihydrochloride], the IC50 was 100 to 1000 nM on RON (human) and ≤ 100 nM against MET (human).

For the compound `Nc1ncc(-c2cnn(C3CCNCC3)c2)cc1-c1cc2c(F)ccc(F)c2cn1` [Example 10, 3-(5,8-Difluoroisoquinolin-3-yl)-5-(1-piperidin-4-yl-1H-pyrazol-4-yl)-pyridin-2-ylamine trihydrochloride], the IC50 against RON (human) was 1000 to 20000 nM; at MET (human), 100 to 1000 nM.

Regarding `Nc1ncc(-c2cnn(C3CCNCC3)c2)cc1-c1cc2c(Cl)ccc(F)c2cn1` [Example 11, 3-(5-Chloro-8-fluoroisoquinolin-3-yl)-5-(1-piperidin-4-yl-1H-pyrazol-4-yl)-pyridin-2-ylamine trihydrochloride], the values for the IC50 at RON (human) and at MET (human) were 100 to 1000 nM and ≤ 100 nM, respectively.

In the case of `COc1ccc(Cl)c2cc(-c3cc(-c4cnn(C5CCNCC5)c4)cnc3N)ncc12` [Example 12, 4-{4-[6-Amino-5-(5-chloro-8-methoxyisoquinolin-3-yl)-pyridin-3-yl]-pyrazol-1-yl}-piperidine trihydrochloride], the IC50 on RON (human) was in the range of 1000 to 20000 nM; against MET (human), 100 to 1000 nM.

`Nc1ncc(-c2cnn(C3CCNCC3)c2)cc1-c1cc2ccccc2cn1` [Example 13, 3-Isoquinolin-3-yl-5-(1-piperidin-4-yl-1H-pyrazol-4-yl)-pyridin-2-ylamine trihydrochloride]: the IC50 on RON (human) fell in the range of 1000 to 20000 nM; against MET (human), 100 to 1000 nM.

As to `Nc1ncc(-c2cnn(C3CCNCC3)c2)cc1-c1cc2ccc(OC(F)(F)F)cc2cn1` [Example 14, 5-(1-Piperidin-4-yl-1H-pyrazol-4-yl)-3-(7-trifluoromethoxy-isoquinolin-3-yl)-pyridin-2-ylamine trihydrochloride], the IC50 on RON (human) and at MET (human) was 1000 to 20000 nM throughout.

On to `Nc1ncc(-c2cnn(C3CCNCC3)c2)cc1-c1cc2c(Cl)c(F)cc(F)c2cn1` [Example 15, 3-(5-Chloro-6,8-difluoroisoquinolin-3-yl)-5-(1-piperidin-4-yl-1H-pyrazol-4-yl)-pyridin-2-ylamine trihydrochloride salt], for which the values for the IC50 against RON (human) and on MET (human) were 100 to 1000 nM and ≤ 100 nM, respectively.

Take `Nc1ncc(-c2cnn(C3CCNCC3)c2)cc1-c1cc2cc(C(F)(F)F)ccc2cn1` [Example 16, 5-(1-Piperidin-4-yl-1H-pyrazol-4-yl)-3-(6-trifluoromethylisoquinolin-3-yl)-pyridin-2-ylamine trihydrochloride salt]: the half-inhibitory concentration (IC50) against RON (human) and against MET (human) was 100 to 1000 nM each time.

Take `Nc1ncc(-c2cnn(C3CCNCC3)c2)cc1-c1cc2ccc(C(F)(F)F)cc2cn1` [Example 17, 5-(1-Piperidin-4-yl-1H-pyrazol-4-yl)-3-(7-trifluoromethylisoquinolin-3-yl)-pyridin-2-ylamine tri-hydrochloride salt]: the IC50 on RON (human) and against MET (human) was 100 to 1000 nM throughout.

Consider `Nc1ncc(-c2cnn(C3CCNCC3)c2)cc1-c1cc2c(C(F)(F)F)cccc2cn1` [Example 18, 5-(1-Piperidin-4-yl-1H-pyrazol-4-yl)-3-(5-trifluoromethylisoquinolin-3-yl)-pyridin-2-ylamine trihydrochloride salt], for which the IC50 against RON (human) and against MET (human) was 100 to 1000 nM in each case.

`Nc1ncc(-c2cnn(C3CCNCC3)c2)cc1-c1cc2cccc(C(F)(F)F)c2cn1` [Example 19, 5-(1-Piperidin-4-yl-1H-pyrazol-4-yl)-3-(8-trifluoromethylisoquinolin-3-yl)-pyridin-2-ylamine trihydrochloride salt]: the IC50 against RON (human) and at MET (human) was 100 to 1000 nM each time.

For the compound `Cc1ccc(C)c2cc(-c3cc(-c4cnn(C5CCNCC5)c4)cnc3N)ncc12` [Example 20, 3-(5,8-Dimethylisoquinolin-3-yl)-5-(1-piperidin-4-yl-1H-pyrazol-4-yl)-pyridin-2-ylamine trihydrochloride salt], the IC50 at RON (human) and against MET (human) was 100 to 1000 nM each time.

Consider `Nc1ncc(-c2cnn(C3CCNCC3)c2)cc1-c1cc2ccc(Br)cc2cn1` [Example 21, 3-(7-Bromoisoquinolin-3-yl)-5-(1-piperidin-4-yl-1H-pyrazol-4-yl)-pyridin-2-ylamine trihydrochloride salt], for which the results for the IC50 against RON (human) and at MET (human) were 1000 to 20000 nM and 100 to 1000 nM, respectively.

Take `Nc1ncc(-c2cnn(C3CCNCC3)c2)cc1-c1cc2c(Br)cccc2cn1` [Example 22, 3-(5-Bromoisoquinolin-3-yl)-5-(1-piperidin-4-yl-1H-pyrazol-4-yl)-pyridin-2-ylamine trihydrochloride salt]: the IC50 against RON (human) was 1000 to 20000 nM; against MET (human) it was 100 to 1000 nM.

Turning to `Nc1ncc(-c2cnn(C3CCNCC3)c2)cc1-c1cc2cc(Br)ccc2cn1` [Example 23, 3-(6-Bromoisoquinolin-3-yl)-5-(1-piperidin-4-yl-1H-pyrazol-4-yl)-pyridin-2-ylamine trihydrochloride salt], the IC50 at RON (human) and on MET (human) was 100 to 1000 nM throughout.

With `Nc1ncc(-c2cnn(C3CCNCC3)c2)cc1-c1cc2cccc(Br)c2cn1` [Example 24, 3-(8-Bromoisoquinolin-3-yl)-5-(1-piperidin-4-yl-1H-pyrazol-4-yl)-pyridin-2-ylamine trihydrochloride salt], the IC50 against RON (human) and on MET (human) was 100 to 1000 nM throughout.
